Data: publication PMC12664080, “Tetrazole-containing naphthalene bis-sulfonamide Keap1-Nrf2 interaction inhibitors with unexpected binding modes” (Redox Biology, 2025)
Values joined by “and” are separate entries in the source; they are usually repeats but may differ in a detail not shown here. Identical values can stand only once.

What was measured:
Keap1 Kelch domain = target: T1, Keap1 Kelch domain (Homo sapiens, UniProt Q14145); experiment: Differential scanning fluorimetry (DSF) thermal shift assay; type: binding; conditions: 10 μM compound; Keap1 vehicle control Ti = 61.3 ± 0.3 °C
T1 construct: made in house
Protocol: The DSF assays were carried out according to the previously described method. Solutions of the Keap1 Kelch domain protein (5 μM final concentration) and the small molecule inhibitor (10 μM final concentration) were prepared in DPBS at pH 7.4 (10 % final DMSO concentration, 20 μL final volume) in an Eppendorf tube. The solution was centrifuged briefly (1500 rpm, 60 s) to remove any particulates and mix the samples, followed by a 30 min incubation at RT. The samples were loaded into Tycho NT.6 capillaries (Nanotemper) in triplicate and positioned in the […] instrument. […] The fluorescence ratio vs temperature was plotted and the inflection temperature (Ti) of the profile was recorded. Changes in inflection (ΔTi) for the inhibitors were calculated by subtracting the mean Ti of the Keap1 sample plus vehicle from the mean Keap1 plus binder value (n = 3).

Nrf2 [1] = experiment: Immunoblotting of Nrf2 and HO-1 in Hepa1c1c7 cells; type: cell-based, mouse; conditions: 6-h incubation, 10 μM or 50 μM
Protocol: Hepa1c1c7 cells (5 × 10^5 cells/well, n = 3) were seeded on six-well plates, and on the next day were treated with compound 25 (10 μM or 50 μM) or vehicle (0.1 % DMSO) for 6 h. Cells were washed twice in PBS, and lysed in 200 μL of SDS lysis buffer containing 2 % SDS, 62.5 mM Tris-HCl pH 6.8 and 10 % glycerol. The cell lysates were boiled for 3 min, sonicated for 25 s (25 %, 4 s on, 1 s off), supplemented with DTT up to 0.1 M and Bromophenol Blue, and snap-frozen. The lysates were thawed, and 20 μg of total protein was separated on a pre-cast NuPage gel under MOPS buffer, transferred onto nitrocellulose membrane and blotted with anti-Nrf2 (Cell Signaling Technology, clone D1Z9C, 1:1000 dilution), anti-HO1 (Abcam, ab13243, 1:2000 dilution) or anti-alpha tubulin (Abcam, clone EP1332Y, 1:5000 dilution) in 5 % milk in PBS with 0.1 % Tween, followed by appropriate secondary antibodies (LiCor BioSciences, 1:15000 dilutuon) and scanned using Odyssey CLx Imaging System.

Nrf2 [2] = experiment: Nrf2 luciferase reporter assay (MCF7 ARE-luciferase reporter cell line); type: cell-based; conditions: Homo sapiens, MCF7 cells
Protocol: The induction of luciferase activity in the stably transfected MCF7 ARE-luciferase reporter cell line was measured using an adaptation of a published procedure. […] The cells were treated with compound or vehicle control (1 % final DMSO concentration) and incubated for a further 24 h. The culture medium was aspirated and the cells were washed with 100 μL per well PBS. The cells were lysed using 75 μL per well lysis buffer (0.2 % Triton X-100 in 25 mM Tris pH 7.5) under gentle agitation at rt for 30 min. The samples were transferred to 500 μL Eppendorf tubes and centrifuged at 10000 g for 5 min at 4 °C. 50 μL of supernatant from each sample were transferred to a new 96 well plate. 50 uL of working reagent (100 mM Tris pH 8.0, 5 mM MgCl2, 100 μM coenzyme A, 80 μM luciferin, and 5 mM ATP) were added to each well and the luciferase activity was measured.

Keap1-mCherry = experiment: Keap1-Glow Cellular Thermal Shift Assay (CETSA), U2OS cell lysates; type: cell-based; conditions: 10 μM, 1 h at 37 °C
Protocol: U2OS FRT/TO cells with doxycycline-inducible expression of Keap1-mCherry or mCherry were treated with 0.5 μg/mL of doxycycline for 72–96 h to induce the expression of the fluorescent proteins. Lysates of U2OS cells with doxycycline-inducible expression of Keap1-mCherry or mCherry were prepared by lysing in DPBS with EDTA-free protease inhibitor cocktail (PIC) using at least 22 strokes of the Dounce homogenizer. The lysates were cleared by centrifugation at 9600×g for 5 min at 22 °C and incubated with 10 μM compound 25 or vehicle (0.4 % DMSO) for 1 h at 37 °C [46]. The lysates were then heated for 3 min at the indicated range of temperatures (39 °C–72 °C, with 3 °C increments) using a thermal cycler, and the aggregated material was removed by a high-speed centrifugation at 17,000×g at 4 °C for 40 min or 15,000×g at 4 °C for 1 h. The soluble fractions were transferred to 96-well white opaque plates, and the fluorescence (580 nm excitation wavelength (20 nm excitation bandwidth), 635 nm emission wavelength (35 nm emission bandwidth)) was measured using a plate reader (TECAN Spark 10 M).

[3] = 1D 1H NMR lineshape analysis of cis/trans rotamer exchange
Protocol: Exchange was quantified using a two-site exchange model [40] implemented in Julia, where resonances were fitted to calculate chemical shifts of the two states and the exchange rates kAB and kBA between them. […] Reported uncertainties were determined from the standard errors of the fits.
Exchange rates kAB and kBA were used to determine the relative populations pA=kBA/kAB+kBA and pB=kAB/kAB+kBA and were fitted to van't Hoff and Eyring equations (with unit transmission coefficient) to estimate the enthalpy and entropy changes and enthalpy and entropy of activation.

[4] = D2O PBS buffer, pH* ~7.4, lineshape

T1 sequence (Q14145 322-609): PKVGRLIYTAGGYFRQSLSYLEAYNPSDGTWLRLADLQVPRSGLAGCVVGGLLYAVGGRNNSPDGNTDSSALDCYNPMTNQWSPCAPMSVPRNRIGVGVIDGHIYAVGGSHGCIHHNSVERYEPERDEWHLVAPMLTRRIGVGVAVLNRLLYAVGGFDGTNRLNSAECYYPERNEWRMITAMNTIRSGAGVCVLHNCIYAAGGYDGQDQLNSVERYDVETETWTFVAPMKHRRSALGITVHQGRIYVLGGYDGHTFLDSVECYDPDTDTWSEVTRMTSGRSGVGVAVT

COc1ccc(S(=O)(=O)N(CC(=O)O)c2ccc(N(Cc3nnn[nH]3)S(=O)(=O)c3ccc(OC)cc3)c3ccccc23)cc1 [Compound 25, N-(4-((N-((1H-tetrazol-5-yl)methyl)-4-methoxyphenyl)sulfonamido)naphthalen-1-yl)-N-((4-methoxyphenyl)sulfonyl)glycine]
DSF ΔTi (Keap1 Kelch domain): 19.4 ± 0.4 °C | protein levels of Nrf2 (Nrf2 [1]): increased | protein levels of heme oxygenase 1 (HO-1) (Nrf2 [1]): increased | fold induction at 10 µM (Nrf2 [2]; 10 μM, 24 h): 1.48 | fold induction at 100 µM (Nrf2 [2]; 100 μM (highest test concentration), read-out: peak fold induction of luciferase activity): 5.66 | Target engagement in the cellular environment (CETSA) (Keap1-mCherry): confirmed | Occupancy of the more shielded state (A) ([3]; D2O PBS buffer (pH* ~7.4), 300 K): 0.606 ±0.003 | Occupancy of the more shielded state (A) ([3]; D2O PBS buffer (pH* ~7.4), 310 K): 0.586 ±0.001 | Occupancy of the more shielded state (A) ([3]; D2O PBS buffer (pH* ~7.4), 320 K): 0.567 ±0.001 | kA→B ([3]; D2O PBS buffer, 300 K, lineshape): 1.432 s^-1 and 1.432 ±0.015^c s^-1 | kA→B ([3]; D2O PBS buffer, 310 K, lineshape): 3.488 ±0.014^c s^-1 | kA→B ([3]; D2O PBS buffer, 320 K, lineshape): 8.912 ±0.024^c s^-1 | ΔHAB [3, 4]: 1.561 ± 0.00526 kcal/mol | ΔH^‡AB [3, 4]: 17.4 ± 0.55 kcal/mol | ΔSAB [3, 4]: 18.19 ± 0.07 | ΔS^‡AB [3, 4]: 0.65 ± 7.2 | Occupancy of the more shielded state (A) ([3]; DMSO, 300 K): 0.486 ±0.003 | kA→B ([3]; DMSO, 300 K, lineshape): 3.059 ± 0.029 s⁻¹ | Occupancy of the more shielded state (A) ([3]; DMSO, 310 K): 0.491 ±0.001 | kA→B ([3]; DMSO, 310 K, lineshape): 3.982 ± 0.007 s⁻¹ | Occupancy of the more shielded state (A) ([3]; DMSO, 320 K): 0.496 ±0.0005 | kA→B ([3]; DMSO, 320 K, lineshape): 8.749 ± 0.012 s⁻¹ | ΔH^‡AB ([3]; DMSO, lineshape, Eyring): 11.5 ± 3.11 kcal/mol | ΔS^‡AB ([3]; DMSO, lineshape, Eyring): -79 ± 41 | ΔSAB ([3]; DMSO, lineshape, van't Hoff): -5.26 ± 0.17
